Measured values as given in US6603023B2 (priority 1996, dated 2003).
“And” between values parts separate entries of the source, which are not always exact repeats. Identical values can stand only once. Like-named read-outs stand apart in the source and are kept apart here.

How the values were obtained:
[1] = system: PC-3 Human Prostate Carcinoma; assay: PC-3 xenograft; type: in vivo, nude mice; details: for Therapeutic effect Rank Order: PC-3; for Average Body Weight, Day 5: initial weight
[2] = system: A549 Human Lung Carcinoma; assay: A549 xenograft; type: in vivo, nude mice; details: for Average Tumor Size, Day 11: control 96; for Average Tumor Size, Day 15: control 306; for Average Tumor Size, Day 17: control 553; for Average Body Weight, Day 7: initial weight
[3] = system: SK-N-FI; assay: cells; type: cell-based, human; details: Table 1C
Protocol: (§1) The drug-resistant cell lines were continuously cultured in the presence of the selecting agent, AD, DX, VBL or VM to maintain the drug resistant phenotypes. […] All cells were cultured in RPMI 1640-10% FBS at 37° C. 5% CO2 (see below).
(§2) The cytotoxicity of the drug toward the monolayer cell cultures (such as DC-3F, MCF-7, SK-N-As and sublines) was determined in 96-well microtiter plates by the SRB method as described by Skehan and co-workers (Skehan, P., et al., J. Natl. Cancer Inst. 1990, 82, 1107-1112) for measuring the cellular protein content. Cultures were fixed with trichloroacetic acid and then stained for 30 min with 0.4% suforhodamine B dissolved in 1% acetic acid. Unbound dye was removed by acetic acid washes, and the protein-bound dye was extracted with an unbuffered Tris base (tris(hydroxy-methyl)aminomethane) for determination of absorbance at 570 nm in a 96-well microtiter plate reader. The experiments were carried out in duplicate. Each run entailed six to seven concentrations of the tested drugs. Data were analyzed with the median-effect plot (Chou, T.-C. & Talalay, P. T. (1984) Adv. Enzyme Regul. 22, 27-55) using a previously described computer program (Chou, J., & Chou T.-C. 1987, Dose-effect analysis with microcomputers: Quantitation of ED50, synergism, antagonism, low-dose risk, reception-ligand binding and enzyme kinetics, IBM-PC software and manual, Biosoft, Cambridge, U.K.).

[4] = system: murine leukemic P388/0; assay: XTT cytotoxicity, P388/0; type: cell-based; details: Table 1C; XTT, 72 h; read-out: IC50
Protocol: The DC-3F hamster lung fibroblast cell line and its actinomycin D-selected sublines (DC-3F/ADII and DC-3F/ADX) were obtained from the Memorial Sloan-Kettering Cancer Center (MSKCC).
as §1
(§3) The cells were cultured at an initial density of 5×10^4 cells/mL. They were maintained in a 5% CO2-humidified atmosphere at 37° C. in RPMI-1640 medium (GIBCO-BRL, Gaithersburg, Md.) containing penicillin (100 U/mL), streptomycin ([…]) (GIBCO-BRL) and 10% heat inactivate fetal bovine serum. Culture for cell suspension (such as for CCRF-CEM, P388 and sublines), were performed by the XTT-microculture tetrazonium method (Scudiero, D. A. et al., Cancer Res. 1988, 48, 4827-4833) in duplicate in 96-well microtiter plates.
(§4) 2′,3′-Bis(methoxy-4-nitro-5-sufophenyl)-5-[(phenylamino)carbonyl]2H-tetrazolium hyudroxide (XTT) was prepared at 1 mg/mL in prewarmed (37° C.) medium without serum. Phenazine methosulfate (PMS) and fresh XTT were mixed together to obtain 0.025 mM PMS-XTT solution (25 μL of the stock 5 mM PMS was added per 5 mL of 1 mg/mL XTT). Following a 72 h incubation, 50 μL of the assay aliquots were added to each well of the cell culture. After incubation at 37° C. for 4 h, absorbance at 450 nm and 630 nm was measured with a microplate reader (EL340, Bio-Tek Instruments, Inc., Winooski, Vt.).

[5] = system: P388/Adr; assay: cells; type: cell-based, murine; details: Table 1C
Protocol: as §1, §3, §4

[6] = system: DC-3F/ADX; assay: cells; type: cell-based, hamster
In short: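 Hamster lung fibroblast DC-3F sublines selected with actinomycin D (ADII moderate, ADX very strong MDR), maintained under selecting agent in RPMI 1640-10% FBS at 37° C. Monolayers exposed to six to seven drug concentrations in duplicate, TCA-fixed, stained with 0.4% SRB; absorbance 570 nm, analyzed by median-effect plot.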

[7] = system: MCF-7; assay: SRB cytotoxicity, MCF-7; type: cell-based, human; details: Table 1C; SRB, 72 h; read-out: IC50
Protocol: as §2

[8] = system: CCRF-CEM/VM1; assay: cells; type: cell-based, human; details: for IC50: read-out: IC50
In short: (§5)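 Suspension leukemic cells (CCRF-CEM, P388 and drug-resistant sublines kept under the selecting agent) were seeded at 5×10^4 cells/mL in RPMI-1640 with 10% FBS at 37 °C. After 72 h drug exposure in duplicate, PMS-XTT was added for 4 h. Absorbance was read at 450 and 630 nm.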

[9] = system: CCRF-CEM human T-cell acute lymphoblastic leukemia cell line; assay: XTT cytotoxicity (cell growth inhibition), CCRF-CEM
In short: as §5

[10] = 6 hr i.v. infusion: dEpoB 40, Taxol 24 mg/kg
[11] = PC-3 Prostate, dEpoB 40 mg/kg Q2D x 3, Taxol 15 mg/kg Q2D x 3
[12] = dEpoB 30 mg/kg 18 hr i.v. infusion, Taxol 16 mg/kg 6 hr infusion, VBL 2 and VP-16 25 mg/kg i.v. inj
[13] = dEpoB 50 mg/kg, 6 hr i.v. infusion
[14] = A549 Lung, dEpoB 40 mg/kg Q2D x 3, Taxol 15 mg/kg Q2D x 3
[15] = Q2D x 3, 6 hr i.v. infusion: dEpoB 40, Taxol 24 mg/kg
[16] = Q2D x 3: dEpoB 30 mg/kg 18 hr i.v. infusion, Taxol 15 mg/kg 6 hr infusion, VBL 2 and VP-16 25 mg/kg i.v. inj
[17] = dEpoB 50 mg/kg Q2D x 3, 6 hr i.v. infusion

SMILES: C/C1=C/C[C@@H](/C(C)=C/c2csc(C)n2)OC(=O)C[C@H](O)C(C)(C)C(=O)[C@H](C)[C@@H](O)[C@@H](C)CCC1 [Desoxyepothilone B, desoxyepothilone B]
- Average Body Weight (change), Day 9 [1, 10]: -1.7 g
- Average Body Weight (change), Day 11 [1, 10]: -3.4 g
- Average Body Weight (change), Day 13 [1, 10]: -2.7 g
- Average Tumor Size (TC), Day 9 [1, 10]: 0.40 TC
- Average Tumor Size (TC), Day 11 [1, 10]: 0.19 TC
- Average Tumor Size (TC), Day 13 [1, 10]: 0.12 TC
- Tumor Disappearance [1, 10]: 0/3
- Therapeutic effect Rank Order ([1]; i.v. infusion (order wraps over rows r24-r25)): dEpoB >> VP-16
- Therapeutic effect Rank Order ([1]; i.v./i.p. (order wraps over rows r11-r12)): Taxol ® > dEpoB >>
- Lowest Average Tumor Size (T/C) [1, 11]: 0.12 T/C
- Tumor Disappearance [1, 11]: 0
- Therapeutic Effects dEpoB vs Taxol ([1]; PC-3 Prostate, dEpoB 40 mg/kg Q2D x 3 vs Taxol 15 mg/kg Q2D x 3): <<
- Average Body Weight (change), Day 9 [1, 12]: -2.2 g
- Average Body Weight (change), Day 11 [1, 12]: -5.9 g
- Average Body Weight (change), Day 13 [1, 12]: -5.8 g
- Average Tumor Size (TC), Day 9 [1, 12]: 0.17 TC
- Average Tumor Size (TC), Day 11 [1, 12]: 0.06 TC
- Average Tumor Size (TC), Day 13 [1, 12]: 0.06 TC
- Tumor Disappearance [1, 12]: 0/3
- Average Body Weight (change), Day 9 [1, 13]: -2.1 g
- Average Body Weight (change), Day 11 [1, 13]: -3.0 g
- Average Body Weight (change), Day 13 [1, 13]: -2.6 g
- Average Tumor Size (TC), Day 9 [1, 13]: 0.37 TC
- Average Tumor Size (TC), Day 11 [1, 13]: 0.13 TC
- Average Tumor Size (TC), Day 13 [1, 13]: 0.03 TC
- Tumor Disappearance [1, 13]: 0/3
- Average Body Weight, Day 5 [1, 10]: 28.3 g
- Average Body Weight, Day 5 [1, 12]: 29.4 g
- Average Body Weight, Day 5 [1, 13]: 28.1 g
- Therapeutic effect Rank Order ([2]; A549, i.v. infusion): Taxol ®, dEpoB, VBL > VP-16
- Lowest Average Tumor Size (T/C) [2, 14]: 0.01 T/C
- Tumor Disappearance [2, 14]: 1/3
- Therapeutic Effects dEpoB vs Taxol ([2]; A549 Lung, dEpoB 40 mg/kg Q2D x 3 vs Taxol 15 mg/kg Q2D x 3): ≅
- Average Body Weight (change), Day 11 [2, 15]: -1.6 g
- Average Body Weight (change), Day 13 [2, 15]: -3.2 g
- Average Body Weight (change), Day 15 [2, 15]: -2.4 g
- Tumor Disappearance [2, 15]: 1/3
- Average Tumor Size, Day 11 [2, 15]: 31 mm^3
- Average Tumor Size, Day 15 [2, 15]: 4 mm^3
- Average Tumor Size, Day 17 [2, 15]: 4 mm^3
- Average Body Weight (change), Day 11 [2, 16]: -2.0 g
- Average Body Weight (change), Day 13 [2, 16]: -5.8 g
- Average Body Weight (change), Day 15 [2, 16]: -5.6 g
- Tumor Disappearance [2, 16]: 1/3
- Average Tumor Size, Day 11 [2, 16]: 17 mm^3
- Average Tumor Size, Day 15 [2, 16]: 26 mm^3
- Average Tumor Size, Day 17 [2, 16]: 21 mm^3
- Average Body Weight (change), Day 11 [2, 17]: -2.0 g
- Average Body Weight (change), Day 13 [2, 17]: -3.2 g
- Average Body Weight (change), Day 15 [2, 17]: -2.5 g
- Tumor Disappearance [2, 17]: 1/2
- Average Tumor Size, Day 11 [2, 17]: 33 mm^3
- Average Tumor Size, Day 13 ([2]; dEpoB 50 mg/kg Q2D x 3, 6 hr i.v. infusion, control 128): 19 mm^3
- Average Tumor Size, Day 15 [2, 17]: 6 mm^3
- Average Tumor Size, Day 17 [2, 17]: 6 mm^3
- Average Body Weight, Day 7 [2, 15]: 27.8 g
- Average Body Weight, Day 7 [2, 16]: 29.3 g
- Average Body Weight, Day 7 [2, 17]: 27.1 g
- Average Tumor Size, Day 13 ([2]; mouse, in vivo): 21 mm^3 and 19 mm^3
- folds of resistance (IC50 ratio vs parent cell line) ([3]; SK-N-FI vs SK-N-As): (2.2x)
- IC50 ([3]; SRB, 72 h, read-out: IC50): 46 nM
- IC50 [4]: 6.8 nM
- folds of resistance (IC50 ratio vs parent cell line) ([5]; P388/Adr vs P388/O): (0.62x)
- IC50 ([5]; XTT, 72 h, read-out: IC50): 4.2 nM
- fold resistance vs parent DC-3F ([6]; DC-3F/ADX cells): 0.9 fold
- folds of resistance (IC50 ratio vs parent cell line) ([6]; Table 1C, DC-3F/ADX vs DC-3F): (0.9x)
- IC50 ([6]; Table 1C, SRB, 72 h, read-out: IC50): 0.91 nM
- IC50 [7]: 2.9 nM
- IC50 ([8]; Table 1, XTT): 14 nM
- (D)/(A) IC50 ratio ([8]; Table 1A, CCRF-CEM/VM1 vs CCRF-CEM): 1.5
- IC50 ([8]; Table 1A, XTT, 72 h): 14 nM
- IC50 ([8]; Table 6, single determinations): 14 nM
- IC50 [9]: 9.5 nM
- IC50 ([9]; Table 1, XTT): 9 nM
- IC50 ([9]; Table 1A, XTT, 72 h): 9.5 nM
- IC50 ([9]; Table 6, single determinations): 9.5 nM
- IC50 ([9]; Table 7, CEM): 9.5 nM
